Measured values taken from US8337881B2, “Cyanoacrylate monomer formulation containing diiodomethyl-p-tolylsulfone” (Ethicon, Inc., priority 2003, dated 2012).
Where two headings read alike, the source gives them in different places.

Key:
[1] = Solubility of DIMPTS in cyanoacrylate monomer; format: physicochemical
Excerpt: Diiodomethyl-p-tolylsulfone (DIMPTS) is soluble in cyanoacrylate monomer at least up to 15,000 ppm (wt./wt.). Accordingly, formulations may herein have a concentration of diiodomethyl-p-tolylsulfone ranging from about 500 (0.05%) to about 10,000 ppm (1.00%), preferably from about 700 (0.07%) to about 7,000 ppm (0.70%), more preferably the concentration of diiodomethyl-p-tolylsulfone is about 2800 ppm (0.28%).

[2] = tested on: Staphylococcus epidermidis 51625; experiment: MIC/MBC of pure DIMPTS, tube dilution procedure; format: cell-based; conditions: preliminary evaluation
Procedure: (§1) Minimum inhibitory concentration is the lowest concentration that prevents the development of visible growth after a period of incubation. Minimum bactericidal concentration is the lowest concentration that achieves a 1000 fold or greater reduction in the original bacterial inoculum. The minimum inhibitory concentration (MIC) and minimum bactericidal concentration (MBC) is evaluated using tube dilution procedure.
(§2) The effectiveness of the antimicrobial property of pure DIMPTS is described in terms of minimum inhibitory concentration (MIC) and minimum bactericidal concentration (MBC) in Table II (A).

[3] = tested on: Staphylococcus aureus 6538; experiment: MIC/MBC of pure DIMPTS, tube dilution procedure; format: cell-based; conditions: preliminary evaluation
Procedure: as §1, §2

Bacillus subtilis 902173 = experiment: MIC/MBC of pure DIMPTS, tube dilution procedure; format: cell-based; conditions: preliminary evaluation
Procedure: as §1, §2

Escherichia coli 8739 = experiment: MIC/MBC of pure DIMPTS, tube dilution procedure; format: cell-based; conditions: preliminary evaluation
Procedure: as §1, §2

Candida albicans 10231 = experiment: MIC/MBC of pure DIMPTS, tube dilution procedure; format: cell-based
Procedure: as §1, §2

[4] = tested on: Streptococcus agalactiae 624; experiment: MIC/MBC of pure DIMPTS, tube dilution procedure; format: cell-based; conditions: preliminary evaluation
Procedure: as §1, §2

[5] = tested on: Pseudomonas aeruginosa 9027; experiment: MIC/MBC of pure DIMPTS, tube dilution procedure; format: cell-based; conditions: preliminary evaluation
Procedure: as §1, §2

[6] = tested on: Staphylococcus aureus 33591; experiment: MIC/MBC of pure DIMPTS, tube dilution procedure; format: cell-based; conditions: preliminary evaluation
Procedure: as §1, with “procedure. The effectiveness of the antimicrobial property of pure […] is described in terms of minimum inhibitory concentration (MIC) and minimum bactericidal concentration (MBC) in Table II (A).” for “procedure.”

[7] = tested on: Enterococcus faecium 700221; experiment: MIC/MBC of pure DIMPTS, tube dilution procedure; format: cell-based; conditions: preliminary evaluation
Procedure: as §1, with “procedure. The effectiveness of the antimicrobial property of pure […] is described in terms of minimum inhibitory concentration (MIC) and minimum bactericidal concentration (MBC) in Table II (A).” for “procedure.”

[8] = aqueous; cited from earlier work

SMILES | soluble in cyanoacrylate monomer [1] | MBC [2] | MIC [2] | MBC [3] | MIC [3] | MBC (Bacillus subtilis 902173) | MIC (Bacillus subtilis 902173) | MBC (Escherichia coli 8739) | MIC (Escherichia coli 8739) | MBC (Candida albicans 10231; Candida albicans 10231, preliminary evaluation) | MIC (Candida albicans 10231; Candida albicans 10231, preliminary evaluation, read-out: MIC) | MIC (Candida albicans 10231; Candida albicans, 10231, statement in description, strain not given, read-out: minimum inhibitory concentration against C. albicans) | MBC [4] | MIC [4] | MIC [5] | MBC [6] | MIC [6] | MIC [7] | pKa [8]
Cc1ccc(S(=O)(=O)C(I)I)cc1 [DIMPTS, diiodomethyl-p-tolylsulfone] | ≥ 15,000 ppm (wt./wt.) | < 100 µg/mL | 25 µg/mL | < 250 µg/mL | 100 µg/mL | 50 to 100 µg/mL | 50 µg/mL | < 250 µg/mL | 100 µg/mL | 10 to 100 µg/mL | 5 µg/mL | ~5 µg/mL | 125 to 250 µg/mL | 50 µg/mL | > 100 µg/mL | < 250 µg/mL | 12.5 µg/mL | 50 µg/mL | 
[O-][Cl+3]([O-])([O-])O [perchloric acid] |  |  |  |  |  |  |  |  |  |  |  |  |  |  |  |  |  |  | −5.0
